The values below come from PMC9490041, “Determinants of affinity, specificity, and phase separation in a supramodule from Post-synaptic density protein 95” (iScience, 2022).

Where two headings read alike, the source gives them in different places.

Test in all cases: FP displacement (competition) of FITC-15 AA CRIPT by library peptide, IC50 and Ki
The target in assay [1] is PSG G322A G335A (PSD-95). Conditions: for IC50: read-out: IC50 (µM), PSG G322A G335A; for Ki: read-out: Ki (µM), PSG G322A G335A.
Assay [2] deals with PSG (PSD-95). Conditions: for IC50: read-out: IC50 (µM), PSG.
Assay [3] deals with PSG G322A (PSD-95). Conditions: for IC50: read-out: IC50 (µM), PSG G322A; for Ki: read-out: Ki (µM), PSG G322A.
Assay [4] addresses PSG G335A (PSD-95). Particulars: for IC50: read-out: IC50 (µM), PSG G335A; for Ki: read-out: Ki (µM), PSG G335A.
[5] abbreviates: FP displacement of FITC-15 AA CRIPT probe by PSD library peptide, protein PSG G322A G335A.
[6] abbreviates: FP displacement of FITC-15 AA CRIPT probe by PSD library peptide, protein PSG (wild type).
Where [7] appears, read: read-out: Ki (µM), PSG, FP displacement of FITC-15 AA CRIPT probe by PSD library peptide, protein PSG (wild type).
Setting [8] is: FP displacement of FITC-15 AA CRIPT probe by PSD library peptide, protein PSG G322A.
Where [9] appears, read: FP displacement of FITC-15 AA CRIPT probe by PSD library peptide, protein PSG G335A.
[10] abbreviates: FP displacement of FITC-15 AA CRIPT probe by acetylated PSD library peptide (P-13 to P0 plus extra N-terminal Y).
Setting [11] is: FP displacement of 5 nM FITC-15 AA CRIPT by non-labeled acetylated peptide, room temperature, Ki from IC50, technical triplicates, PSG.
Setting [12] is: FP displacement of FITC-15 AA CRIPT probe by acetylated PSD library peptide.
Where [13] appears, read: read-out: Ki (µM), PSG, FP displacement of FITC-15 AA CRIPT probe by acetylated PSD library peptide.

In the case of `CC(=O)N[C@@H](Cc1ccc(O)cc1)C(=O)N[C@@H](CCCNC(=N)N)C(=O)N[C@@H](CCC(N)=O)C(=O)N1CCC[C@H]1C(=O)N[C@@H](CC(C)C)C(=O)N1CCC[C@H]1C(=O)N[C@@H](CC(=O)O)C(=O)N[C@@H](CO)C(=O)N[C@@H](CC(N)=O)C(=O)N1CCC[C@H]1C(=O)N[C@@H](CCC(=O)O)C(=O)N[C@@H](CCC(=O)O)C(=O)N[C@@H](CO)C(=O)N[C@@H](CO)C(=O)N[C@H](C(=O)O)C(C)C` [SEM4C], the IC50 is 147 µM in assay [1] (setting [5]), 631 µM in assay [2] (setting [6]), 156 µM in assay [3] (setting [8]) and 329 µM in assay [4] (setting [9]). Besides, the Ki was 51 µM in assay [1] (setting [5]), 269 µM in assay [2] (setting [7]), 68 µM in assay [3] (setting [8]) and 117 µM in assay [4] (setting [9]).
Consider `CC[C@H](C)[C@H](NC(=O)[C@H](CCC(=O)O)NC(=O)[C@H](CCC(=O)O)NC(=O)[C@@H](NC(=O)[C@@H](NC(=O)[C@H](CO)NC(=O)[C@H](CCC(=O)O)NC(=O)[C@H](Cc1ccc(O)cc1)NC(C)=O)[C@@H](C)O)[C@@H](C)O)C(=O)N[C@@H](CCC(=O)O)C(=O)N[C@@H](CC(C)C)C(=O)N[C@@H](CCC(=O)O)C(=O)N[C@@H](CC(=O)O)C(=O)N[C@H](C(=O)N[C@@H](CCC(=O)O)C(=O)N[C@@H](CS)C(=O)O)C(C)C` [VSTM5], for which the 50% inhibitory concentration (IC50) in assay [1] (setting [10]) came to 73 µM; in assay [2] (setting [12]) it was 75 µM; in assay [3] (setting [12]), 86 µM; in assay [4] (setting [12]), 120 µM. Besides, the Ki in assay [2] (setting [11]) is less than 75 µM; in assay [2] (setting [13]), 31 µM; in assay [3] (setting [12]), 37 µM; in assay [4] (setting [12]), 43 µM.
Turning to `CC[C@H](C)[C@H](NC(=O)[C@H](Cc1ccc(O)cc1)NC(=O)[C@H](CO)NC(=O)CNC(=O)[C@H](CO)NC(=O)[C@H](CCC(N)=O)NC(=O)[C@H](Cc1ccc(O)cc1)NC(C)=O)C(=O)N[C@@H](Cc1c[nH]c2ccccc12)C(=O)N[C@H](C(=O)N1CCC[C@H]1C(=O)N[C@@H](C)C(=O)N[C@@H](CCCCN)C(=O)N[C@@H](CCC(=O)O)C(=O)N[C@@H](CCCCN)C(=O)N[C@@H](CC(C)C)C(=O)O)C(C)C` [DLG1], the IC50 stood at 1590 µM in assay [1] (setting [10]), 1470 µM in assay [2] (setting [12]), 1600 µM in assay [3] (setting [12]) and 1310 µM in assay [4] (setting [12]). Moreover, the Ki in assay [1] (setting [12]) amounted to 550 µM; in assay [2] (setting [13]) it was 628 µM; in assay [3] (setting [12]) it was 692 µM; in assay [4] (setting [12]), 466 µM.
Turning to `CC[C@H](C)[C@H](NC(=O)[C@H](CC(N)=O)NC(=O)CNC(=O)CNC(=O)[C@H](CO)NC(=O)[C@H](Cc1ccc(O)cc1)NC(=O)[C@H](CCC(=O)O)NC(=O)[C@@H]1CCCN1C(=O)[C@H](Cc1ccc(O)cc1)NC(C)=O)C(=O)N[C@H](C(=O)N[C@@H](CCCNC(=N)N)C(=O)N[C@H](C(=O)N[C@@H](CO)C(=O)N[C@@H](C)C(=O)N[C@@H](CC(C)C)C(=O)O)C(C)C)C(C)C` [KCND2], the IC50 in assay [1] (setting [5]) is 343 µM; in assay [2] (setting [6]), 1500 µM; in assay [3] (setting [8]), 564 µM; in assay [4] (setting [9]), 237 µM. Moreover, the Ki was 119 µM in assay [1] (setting [5]), 793 µM in assay [2] (setting [7]), 244 µM in assay [3] (setting [8]) and 84 µM in assay [4] (setting [9]).
As to `CSCC[C@H](NC(=O)[C@H](CCC(N)=O)NC(=O)[C@H](CC(=O)O)NC(=O)[C@H](Cc1ccc(O)cc1)NC(=O)[C@H](CC(=O)O)NC(=O)[C@@H]1CCCN1C(=O)[C@H](CO)NC(=O)[C@H](CCCCN)NC(=O)[C@H](CC(C)C)NC(=O)[C@H](Cc1ccc(O)cc1)NC(C)=O)C(=O)N[C@@H](CO)C(=O)N[C@@H](CO)C(=O)N[C@@H](CO)C(=O)N1CCC[C@H]1C(=O)N[C@@H](CS)C(=O)O` [CCG5], the IC50 in assay [1] (setting [10]) came to 2450 µM; in assay [2] (setting [12]), 1410 µM; in assay [3] (setting [12]), 2060 µM; in assay [4] (setting [12]), 2540 µM. The Ki in assay [1] (setting [12]) worked out at 847 µM; in assay [2] (setting [13]) it was 600 µM; in assay [3] (setting [12]), 894 µM; in assay [4] (setting [12]), 907 µM.
In the case of `CSCC[C@H](NC(=O)[C@H](CO)NC(=O)[C@H](Cc1ccc(O)cc1)NC(=O)[C@H](CC(C)C)NC(=O)[C@H](Cc1ccc(O)cc1)NC(=O)[C@H](Cc1ccc(O)cc1)NC(=O)[C@H](Cc1ccccc1)NC(=O)[C@H](Cc1ccc(O)cc1)NC(C)=O)C(=O)N[C@H](C(=O)N[C@@H](Cc1ccc(O)cc1)C(=O)N[C@H](C(=O)N[C@@H](CC(C)C)C(=O)N[C@H](C(=O)N[C@@H](CO)C(=O)N[C@@H](Cc1ccccc1)C(=O)O)C(C)C)[C@@H](C)O)C(C)C` [CNIH2], the half-maximal inhibitory concentration (IC50) is 727 µM in assay [1] (setting [10]), 2080 µM in assay [2] (setting [12]), 2260 µM in assay [3] (setting [12]) and 516 µM in assay [4] (setting [12]). Besides, the Ki in assay [1] (setting [12]) worked out at 252 µM; in assay [2] (setting [13]) it was 888 µM; in assay [3] (setting [12]), 982 µM; in assay [4] (setting [12]), 184 µM.
Regarding `CC(=O)N[C@@H](Cc1ccc(O)cc1)C(=O)N1CCC[C@H]1C(=O)N[C@@H](CCC(N)=O)C(=O)N[C@@H](Cc1c[nH]cn1)C(=O)N[C@@H](CC(C)C)C(=O)N[C@@H](CCCNC(=N)N)C(=O)N[C@H](C(=O)N[C@@H](C)C(=O)N[C@@H](CO)C(=O)N[C@@H](CCCCN)C(=O)N[C@@H](CC(N)=O)C(=O)N[C@@H](CCC(=O)O)C(=O)N[C@H](C(=O)N[C@H](C(=O)N[C@H](C(=O)O)C(C)C)[C@@H](C)O)C(C)C)[C@@H](C)O` [SHSA7], the IC50 in assay [1] (setting [5]) was 1680 µM; in assay [2] (setting [6]) it was 1120 µM; in assay [3] (setting [8]), 695 µM; in assay [4] (setting [9]), 980 µM. The Ki turned out to be 580 µM in assay [1] (setting [5]), 475 µM in assay [2] (setting [7]), 301 µM in assay [3] (setting [8]) and 349 µM in assay [4] (setting [9]).
For `CC(=O)N[C@@H](Cc1ccc(O)cc1)C(=O)N[C@@H](CCCCN)C(=O)N[C@@H](CCCCN)C(=O)N[C@H](C(=O)N[C@@H](CC(C)C)C(=O)N[C@@H](CC(=O)O)C(=O)N[C@H](C(=O)N[C@@H](CCCCN)C(=O)N[C@@H](CC(N)=O)C(=O)N[C@@H](Cc1ccc(O)cc1)C(=O)N[C@@H](CCCCN)C(=O)N[C@@H](CCC(N)=O)C(=O)N[C@H](C(=O)N[C@@H](CO)C(=O)N[C@H](C(=O)O)C(C)C)[C@@H](C)O)[C@@H](C)O)C(C)C` [CRIPT], the IC50 is 0.868 µM in assay [1] (setting [5]), 6 µM in assay [2] (setting [6]), 1.49 µM in assay [3] (setting [8]) and 2 µM in assay [4] (setting [9]). Further, the Ki was less than 75 µM in assay [2] (setting [11]), 2.44 µM in assay [2] (setting [7]) and 0.496 µM in assay [3] (setting [8]).
Turning to `CC[C@H](C)[C@H](NC(=O)[C@H](CCC(=O)O)NC(=O)[C@@H](NC(=O)[C@H](CO)NC(=O)[C@H](CCC(=O)O)NC(=O)[C@@H](NC(=O)[C@H](CCCNC(=N)N)NC(=O)[C@H](CCC(=O)O)NC(=O)[C@H](CC(C)C)NC(=O)[C@H](CCCNC(=N)N)NC(=O)[C@H](CO)NC(=O)[C@@H]1CCCN1C(=O)[C@@H](NC(=O)[C@H](Cc1c[nH]c2ccccc12)NC(=O)[C@H](Cc1ccc(O)cc1)NC(C)=O)[C@@H](C)O)[C@@H](C)CC)[C@@H](C)O)C(=O)O` [LZTS3], the IC50 in assay [1] (setting [5]) was 662 µM; in assay [2] (setting [6]) it was 2120 µM; in assay [3] (setting [8]), 462 µM; in assay [4] (setting [9]), 630 µM. For the same compound, the Ki in assay [1] (setting [5]) was 229 µM; in assay [2] (setting [7]), 902 µM; in assay [3] (setting [8]) it was 200 µM; in assay [4] (setting [9]) it was 224 µM.
As for `CC(=O)N[C@@H](Cc1ccc(O)cc1)C(=O)N[C@@H](CC(=O)O)C(=O)N[C@@H](CO)C(=O)N[C@H](C(=O)N[C@@H](CCC(=O)O)C(=O)N[C@@H](CCC(N)=O)C(=O)N[C@@H](CO)C(=O)N[C@@H](CC(=O)O)C(=O)N[C@H](C(=O)N[C@@H](CCCNC(=N)N)C(=O)N[C@@H](Cc1ccccc1)C(=O)N[C@@H](CO)C(=O)N[C@@H](CO)C(=O)N[C@@H](C)C(=O)N[C@H](C(=O)O)C(C)C)C(C)C)[C@@H](C)O` [GPER1], the IC50 turned out to be 238 µM in assay [1] (setting [5]), 865 µM in assay [2] (setting [6]), 190 µM in assay [3] (setting [8]) and 499 µM in assay [4] (setting [9]). The Ki in assay [1] (setting [5]) is 82 µM; in assay [2] (setting [7]) it was 456 µM; in assay [3] (setting [8]), 82 µM; in assay [4] (setting [9]), 178 µM.
